Measured values published in patent publication US4738975A, “Pyridine derivatives, and use as anti-ulcer agents” (Takeda Chemical Industries, Ltd., priority 1985, dated 1988).

Tests used:
gastric mucosa = assay: gastric mucosal injury induced by ethanol (action of protecting gastric mucosa); assay type: in vivo, Male Sprague-Dawley rats; details: Rattus norvegicus, po; 6 rats per group; doses 3, 10 and 30 mg/kg; 30 min before 1 ml of 100% ethanol; read-out: Action of protecting gastric mucosa ID50
Procedure: As a method of determining the ability to protect gastric mucosa, gastric mocosal injury induced by ethanol [Robert A., Gastroenterology 77, 761 (1979)] is often used. This method was applied to evaluation of the compounds of this invention. Male Sprague-Dawley rats 7-weeks old were fasted for 24 hours. These animals were administered test compounds into the stomach by using a gastric tube. After 30 minutes, 1 ml of 100% ethanol was administered orally. The animals were killed by carbon dioxide gas 60 minutes after ethanol administration. The stomach was removed together with the lower part of esophagus and the duodenum. The esophagus was clipped, 10 ml of 1% formalin solution was instilled into the stomach from the duodenum, and then the duodenum was clipped. The whole stomach was immersed in 1% formalin solution. About 15 minutes later, the stomachs were opened along the greater curvature. Length of the lesions which occurred in the gastric corpus mucosa was measured under a dissecting microscope with a square-grid eye piece (×10). The sum total length of the individual lesions in each animal was measured, and the average value per group was calculated. Based on the difference between the average value of each group and that of the control group, the inhibition rate was determined. The test compound was suspended in a 5% gum arabic solution, and administered in a volume of 2 ml/kg. | administered in a dose of 3, 10 and 30 mg/kg to determine ID50.

oral toxicity in mice = assay type: in vivo; details: oral administration, 500 mg/kg

Compound | ED50 (gastric mucosa) | fatal effect (oral toxicity in mice)
COc1ccc2[nH]c([S+]([O-])Cc3ncc(C)c(OC)c3C)nc2c1 (stereo not shown) [5-OCH3, CH3, CH3, CH3, reference compound] | 22 mg/kg | –
COc1ccnc(C[S+]([O-])c2nc3cc(C(F)(F)F)ccc3[nH]2)c1C (stereo not shown) [5-CF3, CH3, CH3, H, reference compound] | 24 mg/kg | –
COc1c(OCC(F)(F)F)ccnc1C[S+]([O-])c1nc2ccccc2[nH]1 (stereo not shown) [Example 18, 2-[[3-methoxy-4-(2,2,2-trifluoroethoxy)pyrid-2-yl]methylsulfinyl]benzimidazole] | 6.2 mg/kg | no fatal effect
COc1ccnc(C[S+]([O-])c2nc3ccc(C(F)(F)F)cc3[nH]2)c1OC (stereo not shown) [Example 9, 2-[(3,4-dimethoxypyrid-2-yl)methylsulfinyl]-5-trifluoromethylbenzimidazole] | 3 mg/kg | –
COc1ccnc(C[S+]([O-])c2nc3ccccc3[nH]2)c1OC (stereo not shown) [Example 6, 2-[(3,4-dimethoxypyrid-2-yl)methylsulfinyl]benzimidazole] | 3.2 mg/kg | no fatal effect
